Test results published in PMC4640066 (Nature Communications, 2015).

Biological target: T1, γ-TuSC (Saccharomyces cerevisiae, UniProt P53378)
T1 construct: made in house; host or cells: HighFive insect cells
T1 sequence (P53378 1-473): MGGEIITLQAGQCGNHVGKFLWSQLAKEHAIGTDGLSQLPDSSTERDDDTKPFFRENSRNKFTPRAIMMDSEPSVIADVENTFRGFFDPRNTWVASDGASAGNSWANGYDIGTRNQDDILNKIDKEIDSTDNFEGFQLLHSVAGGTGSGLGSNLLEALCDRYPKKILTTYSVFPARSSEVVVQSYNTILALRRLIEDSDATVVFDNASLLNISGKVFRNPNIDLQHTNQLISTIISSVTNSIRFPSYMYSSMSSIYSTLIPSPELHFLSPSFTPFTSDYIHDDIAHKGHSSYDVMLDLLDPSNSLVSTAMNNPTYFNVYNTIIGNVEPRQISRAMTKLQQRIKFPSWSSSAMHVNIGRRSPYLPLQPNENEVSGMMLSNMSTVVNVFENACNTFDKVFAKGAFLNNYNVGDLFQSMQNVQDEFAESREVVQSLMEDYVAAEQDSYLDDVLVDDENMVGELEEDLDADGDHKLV
T1 sequence (P38863 1-823 partner): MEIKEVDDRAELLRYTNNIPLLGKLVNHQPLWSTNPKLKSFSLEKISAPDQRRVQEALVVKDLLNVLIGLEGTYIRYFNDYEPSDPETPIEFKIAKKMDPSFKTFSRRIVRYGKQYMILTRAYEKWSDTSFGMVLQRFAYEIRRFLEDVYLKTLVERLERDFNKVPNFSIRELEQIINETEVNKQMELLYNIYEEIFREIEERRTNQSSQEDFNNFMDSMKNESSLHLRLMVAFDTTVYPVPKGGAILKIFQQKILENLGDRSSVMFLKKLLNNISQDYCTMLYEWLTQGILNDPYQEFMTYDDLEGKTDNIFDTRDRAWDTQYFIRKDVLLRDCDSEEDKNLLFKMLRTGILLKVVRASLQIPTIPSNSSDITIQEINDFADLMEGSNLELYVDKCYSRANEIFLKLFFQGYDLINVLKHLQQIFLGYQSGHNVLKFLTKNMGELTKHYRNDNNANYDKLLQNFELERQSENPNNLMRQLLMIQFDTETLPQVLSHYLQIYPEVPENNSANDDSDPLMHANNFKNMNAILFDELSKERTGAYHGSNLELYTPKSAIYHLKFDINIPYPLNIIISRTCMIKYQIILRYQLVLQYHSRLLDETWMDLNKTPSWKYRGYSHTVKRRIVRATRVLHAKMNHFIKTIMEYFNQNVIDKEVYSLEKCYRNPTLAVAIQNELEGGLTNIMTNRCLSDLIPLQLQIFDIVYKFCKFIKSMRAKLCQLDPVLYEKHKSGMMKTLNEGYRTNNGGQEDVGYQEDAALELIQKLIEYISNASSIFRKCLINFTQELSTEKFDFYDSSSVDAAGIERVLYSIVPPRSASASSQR
T1 sequence (P53540 1-846 partner): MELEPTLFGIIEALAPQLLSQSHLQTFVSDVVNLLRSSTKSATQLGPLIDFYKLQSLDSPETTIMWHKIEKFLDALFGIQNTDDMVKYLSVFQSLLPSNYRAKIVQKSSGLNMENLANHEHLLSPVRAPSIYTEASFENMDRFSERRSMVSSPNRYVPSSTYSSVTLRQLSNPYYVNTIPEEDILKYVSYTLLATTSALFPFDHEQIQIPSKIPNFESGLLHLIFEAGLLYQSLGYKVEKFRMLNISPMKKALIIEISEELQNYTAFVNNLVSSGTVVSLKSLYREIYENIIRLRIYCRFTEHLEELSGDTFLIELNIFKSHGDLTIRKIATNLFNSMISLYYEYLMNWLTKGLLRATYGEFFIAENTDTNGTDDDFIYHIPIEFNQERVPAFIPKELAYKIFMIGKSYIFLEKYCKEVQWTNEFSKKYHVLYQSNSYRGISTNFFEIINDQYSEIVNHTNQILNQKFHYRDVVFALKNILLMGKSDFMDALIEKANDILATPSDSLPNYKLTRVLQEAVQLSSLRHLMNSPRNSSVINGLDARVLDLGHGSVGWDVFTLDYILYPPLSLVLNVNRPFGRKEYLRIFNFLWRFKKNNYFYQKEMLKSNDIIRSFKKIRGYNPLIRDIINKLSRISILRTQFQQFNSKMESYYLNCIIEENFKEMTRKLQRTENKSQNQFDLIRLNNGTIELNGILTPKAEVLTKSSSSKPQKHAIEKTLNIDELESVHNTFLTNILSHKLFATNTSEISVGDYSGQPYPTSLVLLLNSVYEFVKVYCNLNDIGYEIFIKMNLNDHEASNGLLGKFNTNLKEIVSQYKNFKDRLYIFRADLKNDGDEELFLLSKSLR
Experiment: γ-TuSC capping to paclitaxel-stabilized MTs
Type: biochemical
Conditions: 50 μM
Protocol: γ-TuSC was diluted in RB buffer containing 10 μM paclitaxel to reach a final protein concentration of 0.5 μM and incubated with 50 μM of gatastatin for 30 min at 25 °C. Polymerized MTs were prepared by incubation of ∼5 mg ml^−1 α/β-tubulin for 30 min at 37 °C with 1 mM GTP; then paclitaxel was added (final 10 μM). GTP was removed from paclitaxel-stabilized MTs with ultracentrifugation at 240,000g for 10 min at 25 °C. Paclitaxel-stabilized MTs were added to γ-TuSC (final ∼1.2 mg ml^−1). Next, γ-TuSC was incubated with paclitaxel-stabilized MTs for 30 min; MTs and MT-bound γ-TuSC were collected with ultracentrifugation at 240,000g for 10 min at 25 °C and finally placed on poly-L-lysine-coated coverslips. After incubation for 15 min, coverslips were immediately fixed with cold MeOH (−20 °C). Coverslips were blocked with PBS containing 0.5% bovine serum albumin and were incubated with anti-α-tubulin (1:200 dilution, MBL, Cat# PM054) and anti-penta His (1:200 dilution, Qiagen, Cat# 34660) antibodies. After staining with Alexa^488-conjugated anti-rabbit IgG (1:2000 dilution, Invitrogen) and Alexa^568-conjugated anti-mouse IgG (1:2000 dilution, Invitrogen), the coverslips were washed four times with PBS and mounted with PBS. γ-TuSC bound to MTs was observed under a LAS AF 6000 fluorescence microscope (Leica Microsystems, Wetzlar, Germany).

COc1cc2c(=O)c(-c3cc(OC)c4c(c3OC)OCO4)coc2cc1OCc1ccccc1 [Gatastatin, O^7-demethylbenzyl AG1]
Effect on γ-TuSC binding to MT ends: impaired γ-TuSC binding to MT ends
